In patent US20150148235A1, “HERBICIDE-RESISTANT SUNFLOWER PLANTS WITH MULTIPLE HERBICIDE RESISTANT ALLELES OF AHASL1 AND METHODS OF USE” (NIDERA S.A., priority 2013, published 2015):
Marks after values point to notes of the source that are not given here.

System: sunflower lines and hybrids carrying A122T and/or A205V AHASL1 alleles
Assay: Greenhouse whole-plant response to imazapyr doses (height, Phytotoxicity Index, dry biomass), Example 2
Format: in vivo, Helianthus annuus
Conditions: 14 DAT; for Biomass weight reduction: heterozygous A122T/A205V
Protocol: Seeds were sown in Petri dishes and, after germination, plantlets were transplanted to pots of 10 cm of diameter in a potting media consisting of equal parts of vermiculite, soil and sand. Plants were grown in a greenhouse under natural light conditions supplemented with 400 W sodium halide lamps to provide a 16 hr daylength. Day/night temperatures were 25 and 20° C., respectively. At the V2-V4 stage (Schneiter & Miller (1981) Crop Sci. 21:901-903) 10 plants of each genotype were randomly assigned to each treatment consisting of eight imazapyr doses (0, 40, 80, 160, 240, 320, 400 and 480 g ai/ha, corresponding to untreated, 0.5×, 1×, 2×, 3×, 4×, 5× and 6×, respectively), and a zero-time biomass determination. Experiment was arranged as a randomized block design with a full factorial (sunflower line×treatment) arrangement of treatments and 10 replications.
On the day of herbicide application ten plants of each genotype were cut at the cotyledonal node and dried at 60° C. for 48 hrs for zero-time dried weight determination.
The remaining plants were maintained for 14 days after imazapyr treatment (DAT) and their height, Phytotoxicity Index (PI) and above ground dry biomass were determined Height was determined as the distance between the cotyledonal node and the apex of each plant. Above ground biomass data from each line were converted to biomass accumulation after application by subtracting the appropriate average zero-time biomass from each sample. Dry biomass data were converted to percentages of the untreated control plants within each line to allow direct comparisons between groups.

[1] = H4 (A122T/A205V hybrid), 4x=320 g ai/ha
[2] = L1 (A205V line), 0.5x=40 g ai/ha
[3] = L1 (A205V line), 3x=240 g ai/ha
[4] = L2 (A205V line), 5x=400 g ai/ha
[5] = L3 (cmsGM40, A122T line), 2x=160 g ai/ha
[6] = L3 (cmsGM40, A122T line), 4x=320 g ai/ha
[7] = L4 (A122T line), 0.5x=40 g ai/ha
[8] = L4 (A122T line), 2x=160 g ai/ha
[9] = L4 (A122T line), 3x=240 g ai/ha
[10] = L5 (WT susceptible), 1x=80 g ai/ha
[11] = L5 (WT susceptible), 2x=160 g ai/ha
[12] = L5 (WT susceptible), 3x=240 g ai/ha
[13] = L5 (WT susceptible), 4x=320 g ai/ha
[14] = L5 (WT susceptible), 5x=400 g ai/ha
[15] = L5 (WT susceptible), 6x=480 g ai/ha
[16] = mean of A122T genotypes (H2,L3,L4), 2x=160 g ai/ha
[17] = mean of A122T genotypes (H2,L3,L4), 3x=240 g ai/ha

## CC(C)C1(C)N=C(c2ncccc2C(=O)O)NC1=O (stereo not drawn) [imazapyr]
[1]
  biomass accumulation (dry): 85.0 % of untreated
  plant height: 95.0 % of untreated
H4 (A122T/A205V hybrid), 5x=400 g ai/ha
  Phytotoxicity Index (scale 0-9): 0.2
H4 (A122T/A205V hybrid), 6x=480 g ai/ha
  Phytotoxicity Index (scale 0-9): 0.0
[2]
  Phytotoxicity Index (scale 0-9): 0
  plant height: 100.0 % of untreated
L1 (A205V line), 1x=80 g ai/ha
  Phytotoxicity Index (scale 0-9): 0
  plant height: 100.0 % of untreated
L1 (A205V line), 2x=160 g ai/ha
  Phytotoxicity Index (scale 0-9): 1.6
[3]
  Phytotoxicity Index (scale 0-9): 5.1
  plant height: 50.0 % of untreated
L1 (A205V line), 4x=320 g ai/ha
  Phytotoxicity Index (scale 0-9): 8.4
L1 (A205V line), 5x=400 g ai/ha
  Phytotoxicity Index (scale 0-9): 8.9
L1 (A205V line), 6x=480 g ai/ha
  Phytotoxicity Index (scale 0-9): 8.9
L2 (A205V line), 0.5x=40 g ai/ha
  Phytotoxicity Index (scale 0-9): 0
L2 (A205V line), 1x=80 g ai/ha
  Phytotoxicity Index (scale 0-9): 0
  biomass accumulation (dry): 85.0 % of untreated
L2 (A205V line), 2x=160 g ai/ha
  Phytotoxicity Index (scale 0-9): 3.1
L2 (A205V line), 3x=240 g ai/ha
  Phytotoxicity Index (scale 0-9): 3.9
L2 (A205V line), 4x=320 g ai/ha
  Phytotoxicity Index (scale 0-9): 5.9
[4]
  Phytotoxicity Index (scale 0-9): 6.9
  plant height: 26.0 % of untreated
L2 (A205V line), 6x=480 g ai/ha
  Phytotoxicity Index (scale 0-9): 6.7
L3 (cmsGM40, A122T line), 0.5x=40 g ai/ha
  Phytotoxicity Index (scale 0-9): 0.4
L3 (cmsGM40, A122T line), 1x=80 g ai/ha
  Phytotoxicity Index (scale 0-9): 0.4
[5]
  Phytotoxicity Index (scale 0-9): 0.4
  plant height: 92.0 % of untreated
L3 (cmsGM40, A122T line), 3x=240 g ai/ha
  Phytotoxicity Index (scale 0-9): 0.5
[6]
  Phytotoxicity Index (scale 0-9): 1.0
  biomass accumulation (dry): 75.0 % of untreated
L3 (cmsGM40, A122T line), 5x=400 g ai/ha
  Phytotoxicity Index (scale 0-9): 2.0
L3 (cmsGM40, A122T line), 6x=480 g ai/ha
  Phytotoxicity Index (scale 0-9): 2.5
[7]
  Phytotoxicity Index (scale 0-9): 0.0
  biomass accumulation (dry): 100.0 % of untreated
  plant height: 100.0 % of untreated
L4 (A122T line), 1x=80 g ai/ha
  Phytotoxicity Index (scale 0-9): 0.0
  plant height: 100.0 % of untreated
[8]
  Phytotoxicity Index (scale 0-9): 0.0
  biomass accumulation (dry): 97.0 % of untreated
[9]
  Phytotoxicity Index (scale 0-9): 0.0
  plant height: 97.0 % of untreated
L4 (A122T line), 4x=320 g ai/ha
  Phytotoxicity Index (scale 0-9): 0.0
L4 (A122T line), 5x=400 g ai/ha
  Phytotoxicity Index (scale 0-9): 0.0
L4 (A122T line), 6x=480 g ai/ha
  Phytotoxicity Index (scale 0-9): 0.5
L5 (WT susceptible), 0.5x=40 g ai/ha
  Phytotoxicity Index (scale 0-9): 9
[10]
  Phytotoxicity Index (scale 0-9): 9
  biomass accumulation (dry): 15.0 % of untreated
[11]
  Phytotoxicity Index (scale 0-9): 9
  biomass accumulation (dry): 15.0 % of untreated
[12]
  Phytotoxicity Index (scale 0-9): 9
  biomass accumulation (dry): 15.0 % of untreated
[13]
  Phytotoxicity Index (scale 0-9): 9
  biomass accumulation (dry): 15.0 % of untreated
[14]
  Phytotoxicity Index (scale 0-9): 9
  biomass accumulation (dry): 15.0 % of untreated
[15]
  Phytotoxicity Index (scale 0-9): 9
  biomass accumulation (dry): 15.0 % of untreated
Heterozygotes A122T/A205V, 0.5x
  Height reduction: 0.6%
0.5x
  Biomass weight reduction: 0.3%
6x
  Biomass weight reduction: 33%
Mean of A122T genotypes (H2,L3,L4), 0.5x=40 g ai/ha
  Phytotoxicity Index (scale 0-9): 0.3
Mean of A122T genotypes (H2,L3,L4), 1x=80 g ai/ha
  Phytotoxicity Index (scale 0-9): 0.3
[16]
  Phytotoxicity Index (scale 0-9): 0.3
  plant height: 98.0 % of untreated
[17]
  Phytotoxicity Index (scale 0-9): 0.3
  biomass accumulation (dry): 90.0** % of untreated
Mean of A122T genotypes (H2,L3,L4), 4x=320 g ai/ha
  Phytotoxicity Index (scale 0-9): 0.5
Mean of A122T genotypes (H2,L3,L4), 5x=400 g ai/ha
  Phytotoxicity Index (scale 0-9): 0.8
Mean of A122T genotypes (H2,L3,L4), 6x=480 g ai/ha
  Phytotoxicity Index (scale 0-9): 1.2
Mean of A122T/A205V genotypes (H3,H4), 0.5x=40 g ai/ha
  Phytotoxicity Index (scale 0-9): 0.5
Mean of A122T/A205V genotypes (H3,H4), 1x=80 g ai/ha
  Phytotoxicity Index (scale 0-9): 0.5
Mean of A122T/A205V genotypes (H3,H4), 2x=160 g ai/ha
  Phytotoxicity Index (scale 0-9): 0.5
Mean of A122T/A205V genotypes (H3,H4), 3x=240 g ai/ha
  Phytotoxicity Index (scale 0-9): 0.5
Mean of A122T/A205V genotypes (H3,H4), 4x=320 g ai/ha
  Phytotoxicity Index (scale 0-9): 0.5
Mean of A122T/A205V genotypes (H3,H4), 5x=400 g ai/ha
  Phytotoxicity Index (scale 0-9): 0.6
Mean of A122T/A205V genotypes (H3,H4), 6x=480 g ai/ha
  Phytotoxicity Index (scale 0-9): 1
Mean of A205V genotypes (H1,L1,L2), 2x=160 g ai/ha
  Phytotoxicity Index (scale 0-9): 2.2*
Mean of A205V genotypes (H1,L1,L2), 3x=240 g ai/ha
  Phytotoxicity Index (scale 0-9): 5.1**
Mean of A205V genotypes (H1,L1,L2), 4x=320 g ai/ha
  Phytotoxicity Index (scale 0-9): 7.4**
Mean of A205V genotypes (H1,L1,L2), 5x=400 g ai/ha
  Phytotoxicity Index (scale 0-9): 8.2**
Mean of A205V genotypes (H1,L1,L2), 6x=480 g ai/ha
  Phytotoxicity Index (scale 0-9): 8.2**
